Measurements: patent publication US20230346769A1, “USE OF SIMPLE ACYCLIC POLYAMINES FOR THE TREATMENT OF DISEASES CAUSED BY PARASITES OF THE GENUS LEISHMANIA” (Universidad De Granada, priority 2020, published 2023)

Key:
[1] = Potentiometric titrations, protonation constants; type: physicochemical; conditions: 0.15 M NaCl, 298.1 K
Protocol: FEM measurements. Potentiometric titrations were conducted at 298.1 ± 0.1 K using 0.15 M NaCl as the support electrolyte. The experimental procedure (burette, potentiometer, cell, stirrer, microcomputer, etc.) has been fully described elsewhere (E. García-Spain, M.-J. Ballester, F. Lloret, J.M. Moratal, J. Faus and A. Bianchi, J. Chem. Soc. Dalton Trans. 1988, 101-104). The FEM data acquisition was performed with the PASAT software (M. Fontanelli and M. Micheloni, Program for the automatic control of the microburette and the acquisition of the electromotor force readings (PASAT). Minutes of the 1st Spanish-Italian Congress of Thermodynamics of Metal Complexes, Peñíscola, Castellón, Spain, 1990). The reference electrode was an Ag/AgCl electrode in saturated KCI solution. The glass electrode was calibrated as a hydrogen ion concentration probe by titration of previously standardised amounts of HCl with CO2 free NaOH solutions and the equivalent point determined by Gran’s method ((a) G. Gran, Analyst 1952, 77, 661 -671; (b) F.J. Rossotti and H. Rossotti, J. Chem. Educ. 1965, 42, 375-378) providing the standard potential, Eº’, and the ionic product of water (pKw = 13.73 (1)).
Hyperquad software was used to calculate protonation and stability constants (P. Gans, A. Sabatini and A. Vacca, Talanta 1996, 43, 1739-1753). The pH range investigated was 2.5-11.0 and the concentration of the ligands varied from 1×10^-3 to 5×10^-3 M. The different titration curves for each system (at least two) were treated as a single set or as separate curves without significant variations in the values of the stability constants. Finally, the data sets were fused and treated simultaneously to give the final protonation constants (Table 1). For compounds 1, 7 and 9, two protonation constants have been detected in the pH range studied with values ranging from 5.51 to 9.68 logarithmic units. For the remaining compounds, three protonation constants have been measured with values ranging from 10.08 to 2.25 logarithmic units. All compounds have charge +1 at the physiological pH value of 7.4.

[2] = system: L. infantum promastigote forms; assay: In vitro activity against extracellular (promastigote) forms; type: cell-based, Leishmania infantum; conditions: for Selectivity Index (SI) L. infantum Promastigote forms: IC50 of macrophages / IC50 of parasite form; for IC50: Leishmania infantum, 72 h
Description: (§1) Methodology: Cultures of three Leishmania species, representative of the species causing each of the clinical forms of the disease, were used for these studies. Specifically, strains MCAN/ES/2001/UCM-1 O of L.infantum, isolated and characterised in Madrid from an infected dog; MHOM/BR/1975/M2904 of L.braziliensis, isolated in Brazil in a human case, and LCR-L 133 LRC of L.donovani. isolated in Jerusalem, Israel from a case of kala-azar […] (WHO Technical Reports Series 949. Geneva: WHO. March. The cultures of parasites come from an own collection which was prepared from a biobank project (Biobank and Characterisation Unit of Strains and Species of Trypanosomatids, Responsible for Human, Animal and Plant Pathologies, Cgl-2008-03687-E/Bos.), and are available on request.
(§2) The promastigote forms of the three species studied were cultured in vitro in sterility in single-phase MTL culture medium (Medium Trypanosomes Liquid) made from Hank’s Balanced Salts (Sigma-Aldrich, H6136) enriched with 10% (v/v) of Fetal Bovine Serum (SBF-1) inactivated at 56° C./ 30 minutes. The parasite inoculum to initiate the culture was 5 × 10^4 cells/ml in 5 ml medium in 25 cm^2 Falcon® plastic flasks and kept in an oven at 28° C. The cultures were performed routinely, achieving exponential growth of the flagellates until obtaining the cell mass necessary for the subsequent studies. Both promastigote forms and amastigote forms were used to conduct the assays.
(§3) The promastigote forms of the three Leishmania strains, cultured in the manner described above, were harvested in their exponential growth phase by centrifugation at 400 g for 10 min. The number of parasites was counted in a Neubauer Haemocytometer Counting Chamber and were inoculated in a 24-well plate at a concentration of 5 ×10^4 parasites/well.
(§4) The compounds to be assayed were dissolved in DMSO at a concentration of 0.01% (v/v), concentration at which this solvent is not toxic nor has any effect on the growth of parasites. The compounds were added to the culture medium at final concentrations of 100, 50, 25 and 12.5 µM. […] M. et al. Med. Chem. 2011. 54. 970-979].

[3] = system: L. infantum amastigote forms; assay: In vitro activity against intracellular (amastigote) forms in macrophages; type: cell-based, Leishmania infantum; conditions: for Selectivity Index (SI) L. infantum Amastigote forms: IC50 of macrophages / IC50 of parasite form; for IC50: Leishmania infantum, Macrophage, 72 h
Description: as §1
(§5) For the study of the in vitro effect on intracellular forms of Leishmania, the experimental model designed by the group of the present inventors was used [Sánchez-Moreno. M. et al. Med. Chem. 2012, 55, 9900-9913; Sánchez-Moreno. M. et al. J. Antimicrob. Chemother. 2012, 67, 387-397]. The macrophages were detached from the culture flask where they were attached by dry blows. To do this, it was incubated in cold for 5 minutes and after that the flask was hit with the palm of the hand until the cells were detached from the flask. Then, they were passed to a 25 ml capacity steriling conical bottom flask (Deltalab) to centrifuge them at 120 g for 5 minutes, removing the supernatant and were counted in Neubauer’s chamber. Cells were suspended in RPMI medium at a concentration of 1×10^4 cells/well, then cultured in 24-well plates into which a 12 mm round slide had previously been placed into each well. For adherence, the cells were left 24 h at 37° C. in 5% CO2. Subsequently, the cells were infected in vitro by placing Leishmania cells at the rate of 10 parasites/macrophage according to [Sánchez-Moreno. M et al. Med. Chem. 2011, 54, 970-979]. […] The products were allowed to act for 72 hours of incubation.
(§6) After that time, the crystals were removed and fixed with methanol on a slide and allowed to dry, after which DPX microscopy mounting medium (Panreac®) was added to it. Once the preparations had been mounted, they were dyed with Giemsa by diluting Azur-Eosin-Methylene Blue solution according to Giemsa DC (Code 251338) with Sorensen buffer (1:10 dilution). The preparations were covered and allowed to colour for 20 minutes, after which they were washed with distilled water and then allowed to drain and dry vertically. Finally, the amastigote forms were counted with the aim of immersion in a total of 200 cells.

[4] = system: L. braziliensis promastigote forms; assay: In vitro activity against extracellular (promastigote) forms; type: cell-based, Leishmania braziliensis; conditions: for Selectivity Index (SI) L. brazilensis Promastigote forms: IC50 of macrophages / IC50 of parasite form; for IC50: Leishmania braziliensis, 72 h
Description: as §1, §2, §3, §4

[5] = system: L. braziliensis amastigote forms; assay: In vitro activity against intracellular (amastigote) forms in macrophages; type: cell-based, Leishmania braziliensis; conditions: for Selectivity Index (SI) L. brazilensis Amastigote forms: IC50 of macrophages / IC50 of parasite form; for IC50: Leishmania braziliensis, Macrophage, 72 h
Description: as §1, §5, §6

[6] = system: L. donovani promastigote forms; assay: In vitro activity against extracellular (promastigote) forms; type: cell-based, Leishmania donovani; conditions: for Selectivity Index (SI) L. donvovani Promastigote forms: IC50 of macrophages / IC50 of parasite form; for IC50: Leishmania donovani, 72 h
Description: as §1, §2, §3, §4

[7] = system: L. donovani amastigote forms; assay: In vitro activity against intracellular (amastigote) forms in macrophages; type: cell-based, Leishmania donovani; conditions: for Selectivity Index (SI) L. donvovani Amastigote forms: IC50 of macrophages / IC50 of parasite form; for IC50: Leishmania donovani, Macrophage, 72 h
Description: as §1, §5, §6

Row | SMILES | Log β [1] | Logarithm of the protonation constant H+L ⇌ HL [1] | Logarithm of the protonation constant HL+H ⇌ H2L [1] | Selectivity Index (SI) L. infantum Promastigote forms [2] | IC50 [2] [µM] | Selectivity Index (SI) L. infantum Amastigote forms [3] | IC50 [3] [µM] | Selectivity Index (SI) L. brazilensis Promastigote forms [4] | IC50 [4] [µM] | Selectivity Index (SI) L. brazilensis Amastigote forms [5] | IC50 [5] [µM] | Selectivity Index (SI) L. donvovani Promastigote forms [6] | IC50 [6] [µM] | Selectivity Index (SI) L. donvovani Amastigote forms [7] | IC50 [7] [µM] | Logarithm of the protonation constant H2L+H ⇌ H3L [1]
1 | CNCCNCc1ccccn1 [Compound 1, 1-{2-pyridyl}-2,5-diazahexane] | 15.25(1) | 9.63(1) ^b | 5.62(1) | 23 | 0.6 ± 0.2 | 20 | 0.7 ± 0.1 | 2 | 7.4 ± 0.6 | 2 | 5.7 ± 0.3 | 2 | 7 ± 0.5 | 1 | 8.9 ± 0.9 | –
2 | CNCCNCc1cccnc1 [Compound 2, 1-{3-pyridyl)-2,5-diazahexane] | 18.29(3) | 9.653(5) | 5.687(5) | – | 6.4 ± 0.6 | – | 8.4 ± 0.5 | 76 | 4.1 ± 0.2 | 20 | 15.8 ± 0.5 | 26 | 11.7 ± 0.8 | 21 | 14.4 ± 0.1 | 2.95(2)
3 | CNCCNCc1ccncc1 [Compound 3, 1-{4-pyridyl)-2,5-diazahexane] | 18.60(1) | 9.503(5) | 5.713(5) | 18 | 12.6 ± 2.1 | 16 | 13.9 ± 1 | 16 | 14.3 ± 1 | 8 | 27.9 ± 1.2 | 12 | 18.4 ± 0.8 | – | 5.1 ± 0.3 | 3.390(6)
4 | CN(C)CCNCc1ccccn1 [Compound 4, 1-(2-pyridyl)-5-methyl-2,5-diazahexane] | 16.88(2) | 9.06(1) ^b | 5.58(1) | 43 | 28.6 ± 2.5 | 37 | 33.6 ± 1.4 | 33 | 37.3 ± 0.9 | 40 | 30.8 ± 1.3 | 36 | 34.8 ± 1.5 | 32 | 38.8 ± 1.4 | 2.25(2)
